# Measurements reported in patent publication US10420741B2, “Megalin antagonist” (EA Pharma Co., Ltd., priority 2014, dated 2019).
# “Also recorded” adds a separate entry of the source.
# Tests used:
# megalin [1] = target: T1, megalin (Rattus norvegicus, UniProt P98158)
# Excerpt: Next, detailed description will be given of the present invention through the illustration of examples, and the like; however, the present invention is not limited thereto. In the following Examples and the like, purified megalin from rat kidneys according to the method described in NPL 5 was used as the megalin, cilastatin sodium (produced by Sigma-Aldrich Co. LLC.) was used as the cilastatin, colistin sulfate (produced by Sigma-Aldrich Co. LLC.) was used as the colistin, gentamicin produced by Sigma-Aldrich Co. LLC. was used as the gentamicin, vancomycin produced by Sigma-Aldrich Co. LLC. was used as the vancomycin, tenofovir produced by Sigma-Aldrich Co. LLC. was used as the tenofovir, and cisplatin produced by Bristol-Myers Co., Ltd., was used as the cisplatin.
# The antagonism effect with respect to the binding of colistin to megalin due to cilastatin was investigated using the QCM method.
# As a control, measurement and analysis were carried out in the same manner except that cilastatin was not injected (cilastatin injection amount: 0 μg).
# The antagonistic action of cilastatin on the binding of gentamicin, vancomycin, cisplatin, and tacrolimus to megalin was investigated using the QCM method.
# Specifically, the measurement and analysis of the frequency were carried out in the same manner as for Example 1 except that the injection amount of cilastatin was set to 4000 μg and 4000 μg of gentamicin was used instead of 240 μg of colistin.
# In addition, the measurement and analysis of the frequency were carried out in the same manner as for Example 1 except that the injection amount of cilastatin was set to 5000 μg and 1000 μg of vancomycin was used instead of 240 μg of colistin.
# In addition, the measurement and analysis of the frequency were carried out in the same manner as for Example 1 except that the injection amount of cilastatin was set to 10000 μg and 800 μg of cisplatin was used instead of 240 μg of colistin.
# Furthermore, the measurement and analysis of the frequency were carried out in the same manner as for Example 1 except that the injection amount of cilastatin was set to 2000 μg and 160 μg of tacrolimus was used instead of 240 μg of colistin.
# [2] = tested on: kidney tissue (renal tubular cell damage); assay: Nephrotoxicity caused by colistin in C57BL/6 mice, PAS staining and KIM-1 Western blot (Example 4)
# Description: Division was made into a group in which 30 mg/kg/day of colistin was subcutaneously administered over four days to 12-week-old male C57BL/6 mice (colistin-administered group: colstin), a group in which 100 mg/kg/day of cilastatin was subcutaneously administered over four days in combination with the subcutaneous administration of 30 mg/kg/day of colistin over four days (colistin+cilastatin combination group: colstin+cilastatin), and, as a control, a group in which a physiological saline solution was subcutaneously administered over four days instead of colistin (saline group: saline), administration was performed in the same manner as the protocol of Reference Example 2 described above, after that, the kidney tissue was taken and histochemical staining (PAS staining) was performed.
# Furthermore, using the extracted kidney tissue, the expression of KIM-1, which is a renal tubular cell damage marker, was confirmed by Western blot.
# [3] = tested on: nephrotoxicity of cisplatin; conditions: rats, reported in PTL 2; cited from earlier work
# [4] = tested on: colistin-induced renal impairment; assay: Colistin nephropathy in rats, urinary NAG/CRE (Example 3)
# Description: Cilastatin and colistin were co-administered to rats and it was investigated whether or not nephropathy due to colistin was reduced by the megalin ligand antagonistic action of cilastatin.
# In evaluating the colistin nephropathy reduction effect due to cilastatin, a colistin solution and a cilastatin solution were prepared as follows.
# In the preparation of the colistin solution, first, a colistin stock solution (colistin concentration: 10 mg/mL) was prepared by dissolving 360 mg of colistin sulfate in 30 mL of a saline solution. The colistin stock solution was sterilized by filtration with a 22 mm PVDF membrane and then stored at 4° C. and a colistin administration solution was prepared by diluting the solution with a saline solution before the colistin administration. […]
# The concentrations of urinary β-D-N-acetyl-glucosaminidase (NAG) and creatinine (CRE) in the recovered urine were each measured using a measurement kit (product name: CREP 2 and BUNK, both were measured by Roche Diagnostics Co., Ltd.) using a discrete method automatic clinical chemistry analyzer (product name: COBAS INTEGRA 400 plus, manufactured by Roche Diagnostics Co., Ltd.), and the urinary NAG/CRE values of each test group were calculated.
# [5] = tested on: ATCC25922 strain (E. coli standard strain); assay: Disk method anti-microbial activity (Reference Example 4); type: cell-based
# Description: An ATCC25922 strain (E. coli standard strain) was cultured for 20 hours using Mueller Hinton agar (MHA) and then the cultured colonies were suspended in saline and adjusted to obtain a solution equivalent to McFarland turbidity standard 0.5. After uniformly coating and drying the microbial solution on the MHA, 10 μg of colistin, cilastatin, and colistin and cilastatin were each added to 6 mm Whatman filter paper discs, disposed at equal intervals on the MHA described above, and cultured for 20 hours at 37° C., and the blocking circles were compared.
# megalin [6] = target: T1, megalin; assay: QCM method: binding ability to immobilized megalin (Reference Example 1); design: purified megalin from rat kidneys according to the method described in NPL 5 was used as the megalin; from tissue; host or cells: rat kidney; conditions: megalin protein immobilized crystal, colistin 240 μg, gentamicin 4000 μg, vancomycin 1600 μg, cisplatin 400 μg, tenofovir 1200 μg
# Description: The binding ability of colistin, gentamicin, vancomycin, cisplatin, and tenofovir with respect to megalin was analyzed using the quartz crystal microbalance method (QCM method).
# Regarding the immobilization of megalin protein using the Immobilization Kit for AFFINIX (registered trademark) (manufactured by Initium), according to the protocol recommended in the kit, a megalin protein solution adjusted to 12 to 14 μg/mL using Buffer A included in the kit was immobilized by being placed on the crystal installed in the holder.
# In more detail, 8 μL of each drug solution was injected to the megalin protein-immobilized crystal placed in the surface of water containing 8 mL of buffer, and the frequency was measured. As a control, measurement was also performed in the same manner with respect to a crystal where the megalin protein was not immobilized. The measurement data was analyzed using dedicated analysis software AQUA (produced by Initium).
# proximal tubular cells = assay: Renal tubular cell damage by colistin in kidney specific mosaic-type megalin knockout mice (Reference Examples 2 and 3); type: in vivo, mice (apoE cre/megalin loxP)
# Description: Renal tubular cell damage caused when colistin was administered to megalin mosaic-type knockout mice was analyzed.
# First, 12-week-old kidney specific mosaic-type megalin knockout mice (apoE cre/megalin loxP) were used in the experiments (in these mice, genes expressing megalin in about 60% of proximal tubular cells were knocked out). With respect to these mice, the subcutaneous administration of colistin was performed over four days (30 mg/kg/day), after that, proximal tubular cells were analyzed and immunohistochemical staining was performed.
# With the same method as in Reference Example 2, colistin was administered to renal-specific mosaic-type megalin knockout mice, after that, the proximal tubular cells were analyzed, and the expression of KIM-1 (Kidney Injury Molecule 1), which is an injury marker of proximal tubular cells, and the expression of megalin were confirmed using a fluorescent double staining method.
# [7] = 10 μg on 6 mm filter paper disc, MHA, 20 hours at 37° C.
# [8] = colistin 30 mg/kg/day subcutaneous over four days
# T1 sequence (P98158 26-4660): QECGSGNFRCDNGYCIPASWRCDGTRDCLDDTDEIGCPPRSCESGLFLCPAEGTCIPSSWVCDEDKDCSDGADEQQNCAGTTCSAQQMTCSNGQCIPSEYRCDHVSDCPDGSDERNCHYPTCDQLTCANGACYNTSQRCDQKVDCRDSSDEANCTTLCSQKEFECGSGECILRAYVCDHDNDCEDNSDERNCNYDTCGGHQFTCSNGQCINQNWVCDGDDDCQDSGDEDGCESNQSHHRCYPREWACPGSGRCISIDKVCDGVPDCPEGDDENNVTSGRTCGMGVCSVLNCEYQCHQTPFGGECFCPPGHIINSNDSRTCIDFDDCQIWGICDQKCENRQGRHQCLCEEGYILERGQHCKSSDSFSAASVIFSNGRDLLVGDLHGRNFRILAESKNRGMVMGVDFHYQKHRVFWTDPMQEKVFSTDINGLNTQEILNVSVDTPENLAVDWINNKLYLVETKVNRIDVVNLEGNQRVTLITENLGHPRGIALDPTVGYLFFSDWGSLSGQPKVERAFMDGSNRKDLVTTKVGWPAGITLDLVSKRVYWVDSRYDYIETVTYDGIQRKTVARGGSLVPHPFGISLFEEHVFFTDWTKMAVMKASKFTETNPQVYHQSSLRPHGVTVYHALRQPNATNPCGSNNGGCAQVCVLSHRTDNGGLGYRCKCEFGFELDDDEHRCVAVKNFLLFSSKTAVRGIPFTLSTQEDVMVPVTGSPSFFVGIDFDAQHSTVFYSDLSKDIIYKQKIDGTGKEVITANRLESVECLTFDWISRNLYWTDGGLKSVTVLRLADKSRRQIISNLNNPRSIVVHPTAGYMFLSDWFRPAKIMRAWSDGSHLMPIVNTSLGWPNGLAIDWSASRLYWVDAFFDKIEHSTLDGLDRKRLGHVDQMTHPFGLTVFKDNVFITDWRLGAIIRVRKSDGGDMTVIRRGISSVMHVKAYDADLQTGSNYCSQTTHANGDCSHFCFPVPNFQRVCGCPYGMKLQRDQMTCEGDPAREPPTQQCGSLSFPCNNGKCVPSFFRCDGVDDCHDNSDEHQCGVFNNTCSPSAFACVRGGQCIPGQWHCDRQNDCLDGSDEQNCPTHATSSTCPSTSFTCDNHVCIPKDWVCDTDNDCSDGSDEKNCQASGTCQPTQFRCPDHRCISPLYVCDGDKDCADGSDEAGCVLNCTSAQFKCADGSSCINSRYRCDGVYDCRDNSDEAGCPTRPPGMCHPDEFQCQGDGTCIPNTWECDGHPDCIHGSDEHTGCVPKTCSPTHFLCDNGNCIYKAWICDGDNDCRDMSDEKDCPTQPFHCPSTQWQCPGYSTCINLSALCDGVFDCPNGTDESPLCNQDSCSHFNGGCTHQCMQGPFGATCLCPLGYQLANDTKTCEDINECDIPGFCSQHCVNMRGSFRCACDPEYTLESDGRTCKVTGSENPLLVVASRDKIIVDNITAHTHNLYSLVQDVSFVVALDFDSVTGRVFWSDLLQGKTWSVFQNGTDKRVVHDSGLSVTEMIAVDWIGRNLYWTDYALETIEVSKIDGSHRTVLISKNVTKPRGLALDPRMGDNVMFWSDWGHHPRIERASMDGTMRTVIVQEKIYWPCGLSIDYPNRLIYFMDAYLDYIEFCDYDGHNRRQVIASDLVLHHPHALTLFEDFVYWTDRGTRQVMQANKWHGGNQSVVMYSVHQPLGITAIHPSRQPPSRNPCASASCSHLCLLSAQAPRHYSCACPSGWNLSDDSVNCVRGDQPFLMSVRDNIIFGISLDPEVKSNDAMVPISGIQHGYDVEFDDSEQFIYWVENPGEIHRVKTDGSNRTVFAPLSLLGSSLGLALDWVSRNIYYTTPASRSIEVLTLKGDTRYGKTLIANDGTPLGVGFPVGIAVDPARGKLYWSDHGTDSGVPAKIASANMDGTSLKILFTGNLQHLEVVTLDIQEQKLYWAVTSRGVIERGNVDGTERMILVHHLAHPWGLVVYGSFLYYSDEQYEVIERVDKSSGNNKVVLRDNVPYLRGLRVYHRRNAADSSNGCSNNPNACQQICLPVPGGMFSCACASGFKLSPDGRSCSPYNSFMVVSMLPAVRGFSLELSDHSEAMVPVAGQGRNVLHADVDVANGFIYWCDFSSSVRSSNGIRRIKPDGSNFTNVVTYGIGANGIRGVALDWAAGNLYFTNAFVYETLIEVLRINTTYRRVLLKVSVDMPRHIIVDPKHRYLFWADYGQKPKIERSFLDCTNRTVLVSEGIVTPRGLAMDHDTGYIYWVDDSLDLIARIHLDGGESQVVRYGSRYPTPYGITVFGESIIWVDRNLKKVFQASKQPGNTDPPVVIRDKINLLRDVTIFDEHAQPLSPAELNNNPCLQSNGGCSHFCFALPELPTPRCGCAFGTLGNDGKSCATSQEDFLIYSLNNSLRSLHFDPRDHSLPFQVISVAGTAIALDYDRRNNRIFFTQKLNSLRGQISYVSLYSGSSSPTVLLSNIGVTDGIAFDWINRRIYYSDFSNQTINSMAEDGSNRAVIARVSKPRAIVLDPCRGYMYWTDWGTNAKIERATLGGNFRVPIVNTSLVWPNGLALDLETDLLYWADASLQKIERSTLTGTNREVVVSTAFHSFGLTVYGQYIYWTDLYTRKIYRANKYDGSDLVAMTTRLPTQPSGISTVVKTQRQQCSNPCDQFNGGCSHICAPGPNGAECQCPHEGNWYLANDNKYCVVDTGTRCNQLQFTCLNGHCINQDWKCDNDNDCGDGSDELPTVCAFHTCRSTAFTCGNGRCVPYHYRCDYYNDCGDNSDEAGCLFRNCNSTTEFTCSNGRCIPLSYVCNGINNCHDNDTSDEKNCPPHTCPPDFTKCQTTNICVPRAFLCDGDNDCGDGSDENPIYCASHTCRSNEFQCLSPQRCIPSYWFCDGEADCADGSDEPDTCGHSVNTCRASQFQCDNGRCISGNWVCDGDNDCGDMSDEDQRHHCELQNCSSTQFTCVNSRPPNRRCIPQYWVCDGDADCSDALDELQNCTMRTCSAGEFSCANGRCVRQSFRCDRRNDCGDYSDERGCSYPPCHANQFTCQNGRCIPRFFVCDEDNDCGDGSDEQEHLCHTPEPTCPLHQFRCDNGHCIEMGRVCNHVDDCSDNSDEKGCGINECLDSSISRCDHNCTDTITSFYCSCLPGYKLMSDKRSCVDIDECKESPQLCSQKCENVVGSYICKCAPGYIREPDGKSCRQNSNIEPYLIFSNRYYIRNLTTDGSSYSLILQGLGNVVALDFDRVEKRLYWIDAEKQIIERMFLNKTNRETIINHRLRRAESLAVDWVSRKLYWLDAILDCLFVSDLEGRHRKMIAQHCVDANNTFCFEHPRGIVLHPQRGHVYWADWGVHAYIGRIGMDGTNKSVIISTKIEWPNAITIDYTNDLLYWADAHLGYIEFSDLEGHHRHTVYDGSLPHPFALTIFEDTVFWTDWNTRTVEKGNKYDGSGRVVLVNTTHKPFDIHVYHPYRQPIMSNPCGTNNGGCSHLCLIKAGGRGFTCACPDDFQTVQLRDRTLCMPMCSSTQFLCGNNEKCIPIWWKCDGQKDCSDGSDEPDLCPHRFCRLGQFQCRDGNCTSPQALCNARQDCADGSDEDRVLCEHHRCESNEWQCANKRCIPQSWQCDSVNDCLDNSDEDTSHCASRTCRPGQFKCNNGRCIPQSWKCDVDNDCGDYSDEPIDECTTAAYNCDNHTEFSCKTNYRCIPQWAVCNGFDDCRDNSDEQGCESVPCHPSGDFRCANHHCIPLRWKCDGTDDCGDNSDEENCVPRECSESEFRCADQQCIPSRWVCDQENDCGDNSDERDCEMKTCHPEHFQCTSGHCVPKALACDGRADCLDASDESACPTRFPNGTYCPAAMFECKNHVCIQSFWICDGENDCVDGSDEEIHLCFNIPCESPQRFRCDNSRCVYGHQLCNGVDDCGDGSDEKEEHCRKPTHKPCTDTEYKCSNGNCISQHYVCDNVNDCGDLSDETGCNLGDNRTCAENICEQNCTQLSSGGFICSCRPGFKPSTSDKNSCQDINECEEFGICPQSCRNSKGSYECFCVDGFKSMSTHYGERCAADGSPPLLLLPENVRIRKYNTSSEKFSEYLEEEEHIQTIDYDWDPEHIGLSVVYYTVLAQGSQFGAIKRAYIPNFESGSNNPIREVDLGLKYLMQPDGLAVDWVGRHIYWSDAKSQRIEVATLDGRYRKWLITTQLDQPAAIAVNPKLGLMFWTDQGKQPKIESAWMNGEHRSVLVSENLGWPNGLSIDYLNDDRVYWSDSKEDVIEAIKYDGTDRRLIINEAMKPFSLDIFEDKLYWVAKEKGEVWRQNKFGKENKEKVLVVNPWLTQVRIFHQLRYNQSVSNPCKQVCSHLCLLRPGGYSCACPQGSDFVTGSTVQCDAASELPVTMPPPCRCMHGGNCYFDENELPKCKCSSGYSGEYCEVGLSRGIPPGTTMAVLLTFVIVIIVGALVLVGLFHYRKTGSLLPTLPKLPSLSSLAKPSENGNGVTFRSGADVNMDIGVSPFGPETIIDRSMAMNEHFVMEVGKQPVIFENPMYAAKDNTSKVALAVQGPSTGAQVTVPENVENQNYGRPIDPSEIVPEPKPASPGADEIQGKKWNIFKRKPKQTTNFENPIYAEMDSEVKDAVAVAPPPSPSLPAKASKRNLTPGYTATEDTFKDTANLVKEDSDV
compound,measurement,setting,value
"CC1(C)C[C@@H]1C(=O)N/C(=C\CCCCSC[C@H](N)C(=O)O)C(=O)O [cilastatin, (Z)-7-[[(R)-2-amino-2-carboxyethyl]thio]-2-[[[(S)-2,2-dimethylcyclopropyl]carbonyl]amino]-2-heptenoic acid]",inhibition of binding of tacrolimus to megalin protein,megalin [1]; cilastatin 2000 μg before 160 μg tacrolimus,inhibited by cilastatin
same,inhibition of binding of gentamicin to megalin protein,megalin [1]; cilastatin 4000 μg before 4000 μg gentamicin,inhibited by cilastatin
same,inhibition of binding of vancomycin to megalin protein,megalin [1]; cilastatin 5000 μg before 1000 μg vancomycin,inhibited by cilastatin
same,inhibition of binding of cisplatin to megalin protein,megalin [1]; cilastatin 10000 μg before 800 μg cisplatin,inhibited by cilastatin
same,inhibition of binding of colistin to megalin protein,"megalin [1]; cilastatin 800, 5000 or 10000 μg injected before 240 μg colistin",inhibited depending on the concentration of the cilastatin
same,"renal tubular cell damage caused by colistin, histologically and biochemically",[2]; cilastatin 100 mg/kg/day combined with colistin 30 mg/kg/day,remarkably improved
same,nephrotoxicity of cisplatin on co-administration with cilastatin,[3],the nephrotoxicity was improved
same,colistin-induced renal impairment,"[4]; co-administration of cilastatin 100 mg/kg with colistin, rats",colistin-induced renal impairment was reduced
same,blocking circle / anti-microbial activity,[5]; [7],a blocking circle was not formed and anti-microbial activity was not exhibited; also recorded: anti-microbial activity could not be seen
same,influence on the anti-microbial activity of colistin,[5]; colistin and cilastatin on the same disc,does not affect the anti-microbial activity of colistin
N.N.[Cl][Pt][Cl] [cisplatin],binding to megalin (frequency decrease after injection),megalin [6],binding to megalin was confirmed
C=CC[C@@H]1/C=C(\C)C[C@H](C)C[C@H](OC)[C@H]2O[C@@](O)(C(=O)C(=O)N3CCCC[C@H]3C(=O)O[C@H](/C(C)=C/[C@@H]3CC[C@@H](O)[C@H](OC)C3)[C@H](C)[C@@H](O)CC1=O)[C@H](C)C[C@@H]2OC [tacrolimus],binding to megalin (frequency decrease after injection),megalin [6],binding to megalin was confirmed
C[C@H](Cn1cnc2c(N)ncnc21)OCP(=O)(O)O [tenofovir],binding to megalin (frequency decrease after injection),megalin [6],not possible to find the binding
CN[C@H](CC(C)C)C(=O)N[C@H]1C(=O)N[C@@H](CC(N)=O)C(=O)N[C@H]2C(=O)N[C@H]3C(=O)N[C@H](C(=O)N[C@H](C(=O)O)c4cc(O)cc(O)c4-c4cc3ccc4O)[C@H](O)c3ccc(c(Cl)c3)Oc3cc2cc(c3O[C@@H]2O[C@H](CO)[C@@H](O)[C@H](O)[C@H]2O[C@H]2C[C@](C)(N)[C@H](O)[C@H](C)O2)Oc2ccc(cc2Cl)[C@H]1O [vancomycin],binding to megalin (frequency decrease after injection),megalin [6],binding to megalin was confirmed
colistin,dilatation and cast formation of the tubules (PAS staining),[2]; [8],dilatation and cast formation of the tubules was observed
same,expression of KIM-1 in kidney tissue (Western blot),[2]; [8],increased expression of KIM-1 was observed
same,urinary NAG/CRE values relative to saline/saline group,"[4]; saline/colistin group, fifth day, colistin total 20.5 mg/kg over 5 days into jugular vein",≥ 4 times
same,KIM-1 expression in proximal tubular cells,"proximal tubular cells; colistin 30 mg/kg/day subcutaneous over four days, fluorescent double staining with megalin","KIM-1 was also expressed in the proximal tubular cells in which megalin, which remained without being knocked out, was expressed"
same,vacuoles in cytoplasm of proximal tubular cells expressing megalin versus megalin knocked out cells,"proximal tubular cells; colistin 30 mg/kg/day subcutaneous over four days, immunohistochemical staining",numerous vacuoles (arrows) were observed in the cytoplasm
same,dependence of proximal renal tubular cell damage on megalin expression,proximal tubular cells; mosaic-type megalin knockout mice,largely depended on the expression of megalin
same,blocking circle / anti-microbial activity,[5]; [7],a growth inhibition circle was formed
same,blocking circle diameter,[5]; [7],13.5 mm
same,binding to megalin (frequency decrease after injection),megalin [6],binding to megalin was confirmed
gentamicin,binding to megalin (frequency decrease after injection),megalin [6],binding to megalin was confirmed
